Assay [1] has as its system c-Myc-responsive promoter. The experiment in a line: Myc reporter gene expression (luciferase) in HeLa cells. Type of assay: cell-based. Conditions: markedly diminished within 6 h of compound addition. An excerpt:
The generic reporter vector pGL4.28(luc2CP/minP/Hygro) (Promega Corp., Madison Wis.), which is specifically designed to reduce anomalous transcription and which contains a highly de-stabilized luciferase reporter was used to assess the effects of Myc inhibitors. […] A control vector containing this same oligonucleotide with mutant E-box sites ([NT] ID NO: 3) was used as a negative control. […] After automated DNA sequencing to confirm the identity of its respective insert, each vector was then separately co-transfected into HeLa cells together with the vector pFR400, which encodes a mutant form of dihydrofolate reductase that facilitates the step-wise amplification of the plasmid and any co-transfected sequences in the presence of increasing concentrations of the folate antagonist methotrexate (MTX). After first selecting for stably transfected cells by growth in hygromycin, the resistant clones were pooled and grown in serial four-fold increasing concentrations of MTX ranging from […]), thus allowing the luciferase signal originating from the first vector to be easily detected above background. No luciferase signal over background values could be obtained in unamplified cells or in amplified cells transfected with the mutant E-box-containing vector. […]
On the technique in general: Reporter assays use an easily measured gene product as a stand-in for the process of interest.

Assay [2] concerns HL60 cells. The experiment in a line: Cell cycle analysis (propidium iodide, flow cytometry). Type of assay: cell-based. Particulars: 24 h. The procedure:
Sub-confluent cultures of cells at >90% viability were plated into fresh medium at densities that were typically about 10% of those attained at the point of density arrest. The next day, Myc inhibitors at the stated concentrations were added for 24-48 hr. The cells were then harvested, washed twice in PBS and stained with propidium iodide as previously described(23). Cell cycle analyses were performed on a BD FACSCalibur™ flow cytometer (Becton Dickinson, Inc. Franklin Lakes, N.J.) and analyzed using ModFit LT 3.3 (Verity Software House, Topsham, Me.).
Background: A flow cytometer gives signals particle by particle.

The next assay deals with T1, Max-Max homodimers (Homo sapiens, UniProt P61244).
T1 construct: His6; made in house; host or cells: bacteria
T1 sequence (P61244 whole entry): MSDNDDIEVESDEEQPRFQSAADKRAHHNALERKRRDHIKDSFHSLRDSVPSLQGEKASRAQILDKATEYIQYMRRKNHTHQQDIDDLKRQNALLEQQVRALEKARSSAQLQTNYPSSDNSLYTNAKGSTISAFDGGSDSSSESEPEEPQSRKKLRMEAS
The assay is described as follows: EMSA of Max-Max homodimerization and DNA binding. Particulars: 50% inhibition of Max-Max dimerization and DNA binding in EMSAs. Background: A gel shift assay detects complexes by their altered migration in electrophoresis.

Another assay has as its system Daudi cells. The assay is described as follows: Growth inhibition (MTT assay) in Daudi cells. Type of assay: cell-based. Particulars: 10-point serial dilution, quadruplicate; for IC50: read-out: IC50 Daudi. The procedure: (§1) These were performed using HL60 human promyelocytic leukemia cells or Daudi Burkitt lymphoma cells essentially as described previously (23). Briefly, cells were seeded into 96 well dishes (5000 cells/well and 10,000 cells/well for HL60 and Daudi cells, respectively). Growth medium consisted of RPMI medium supplemented with Penicillin/Streptomycin, glutamine and 10% fetal bovine serum. The indicated concentrations of each compound were then added and 10-point growth inhibition assays were performed 3-5 days later using the MTT assay. Each point was performed in quadruplicate.
(§2) Daudi Burkitt lymphoma and HL60 promyelocytic leukemia cells were maintained in RPMI medium supplemented with 10% fetal bovine serum.(23) For growth inhibition studies, 3×10^3 cells were seeded in 96 well plates in the presence of serial dilutions of each compound. A total of 10 dilutions, ranging from 0.1 to 50 μM were performed for each compound. Standard MTT assays (23) were used to quantify cell number 3-4 days later and compared to wells exposed to DMSO vehicle only.

In the next assay the target is T2, c-Myc-Max heterodimers (Homo sapiens, UniProt P01106).
T2 construct: c-Myc bHLH-ZIP domain (residues 353-437); His6-TEV protease substrate tag; made in house; host or cells: bacteria (pET151 vector for Myc)
T2 sequence (P01106 368-452, one chain of several): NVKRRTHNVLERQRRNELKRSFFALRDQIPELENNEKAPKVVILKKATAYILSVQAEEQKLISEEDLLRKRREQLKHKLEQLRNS
The experiment in a line: Electrophoretic mobility shift assay (EMSA) of c-Myc-Max dimerization and DNA binding. As to the method:
The ability of a small-molecule to interfere with c-Myc-Max dimerization is conveniently assessed through the disruption of the c-Myc-Max/DNA ternary complex by an electrophoretic mobility shift assay (EMSA) using fluorescently-labelled DNA, and subsequently quantified by densitometry.(23) Accordingly, a 100-member library was screened for the ability to disrupt the c-Myc-Max dimer.
These were performed essentially as described previously (23). Briefly, Ni^+-agarose-purified His6-tagged c-Myc bHLH-ZIP domain (residues 353-437) was used for all binding assays as was the His6-tagged 151 residue isoform of Max, otherwise referred to as Max(S) (residues 2-151) (21). For each binding reaction, the proteins were allowed to heterodimerize at a concentration of 30 nM each in the presence of 20 nM of a 5′-HEX-tagged double-stranded 22-base pair oligonucleotide 5′-hexachlorofluoresceine-[…]-3′ (SEQ ID NO: 1) containing a consensus c-Myc binding site (CACGTG) and the indicated concentration of small molecule inhibitor. Control reactions contained the same oligonucleotide in the presence of 60 nM of the 160 residue isoform of Max referred to as Max(L) (21). All binding reactions were prepared in a buffer consisting of PBS (pH 7.3), 1 mmol/L EDTA, 0.1% NP40, 5% glycerol, 1 mmol/L DTT, and 0.4 mg/mL bovine serum albumin. Electrophoresis was performed on 8% polyacrylamide/bisacrylamide (80:1) gels in […] (23). Each reaction was run on at least three separate occasions.
EMSAs were performed essentially as described utilizing bacterially-expressed recombinant proteins purified nearly to homogeneity.(23) Experiments with Max homodimers used the His6-tagged 160 amino acid isoform of the protein, termed Max(L), which homodimerizes and binds DNA well. For studies with Myc-Max heterodimers, the His6-tagged 151 residue isoform of Max [Max(S)] was used, which binds DNA well as a heterodimer with Myc but poorly as a homodimer.(23) Recombinant Myc protein, expressed in the pET151 vector, consisted of the His6-TEV protease substrate-tagged 85 amino acid bHLH-ZIP domain. (23) Each protein was purified by Ni-agarose affinity chromatography as previously described. (23) The His6-TEV tag was removed from the Myc protein by TEV protease cleavage followed by re-purification using Ni-agarose affinity chromatography to remove the His6-TEV protease and the cleaved His6-TEV tag as previously described. Binding assays were performed with 30 nM of each protein and 30 nM of a 6-carboxy-2′,4,4′,5′,7,7′-hexachlorofluorescein (HEX)-tagged double-stranded oligonucleotide containing a consensus Myc binding site (IDT, Coralville, Iowa).(23)

Assay [3] has as its system HL60 cells. The assay is described as follows: Growth inhibition (MTT assay) in HL60 cells. Type of assay: cell-based, human. Conditions: 10-point serial dilution, quadruplicate; for IC50: read-out: IC50 HL60. The procedure:
as §1, §2

The target of a further assay is T3, c-Myc-Max dimerization (Homo sapiens, UniProt P01106).
T3 construct: endogenous in cells; host or cells: HL60
T3 sequence (P01106 16-454 limits assumed): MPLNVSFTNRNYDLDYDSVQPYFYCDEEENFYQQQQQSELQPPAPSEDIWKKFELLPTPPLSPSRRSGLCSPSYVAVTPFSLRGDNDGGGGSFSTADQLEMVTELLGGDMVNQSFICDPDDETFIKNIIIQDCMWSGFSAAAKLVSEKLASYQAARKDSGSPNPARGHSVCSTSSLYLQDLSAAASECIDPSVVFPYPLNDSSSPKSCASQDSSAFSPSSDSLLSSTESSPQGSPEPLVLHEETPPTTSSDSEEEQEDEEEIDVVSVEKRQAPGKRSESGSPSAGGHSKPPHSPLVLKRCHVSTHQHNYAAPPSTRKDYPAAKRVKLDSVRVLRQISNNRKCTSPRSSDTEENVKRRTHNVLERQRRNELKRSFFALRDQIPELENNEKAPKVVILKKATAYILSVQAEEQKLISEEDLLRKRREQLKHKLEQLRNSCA
The experiment in a line: Co-immunoprecipitation (Co-IP) of c-Myc with Max in HL60 cells. Type of assay: cell-based. The procedure: Co-IP assays were performed essentially as described previously.(23) Briefly, 5×10^6 HL60 cells (>90% viable) in log-phase growth were treated in suspension for 4-6 h with the stated concentration of 3jc48-3. As a negative control, samples exposed to DMSO vehicle only were included and processed in parallel. Treated cells were collected by centrifugation, washed twice in ice-cold PBS and lysed in IP Buffer. 300 μg of cleared lysate was then precipitated with a 1:200 dilution of anti-Max antibody(23) followed by subsequent precipitation with protein G-Sepharose using conditions recommended by the supplier (Santa Cruz Biotechnology, Inc. Santa Cruz, Calif.). The precipitate was washed three times in IP buffer, boiled in running buffer and resolved by 10% SDS-PAGE. After electrotransfer of the proteins to a PVDF membrane (Millipore Corp. Billercica, Mass.), the blot was probed with a 1:1000 dilution of anti-Myc monoclonal antibody (9E10, Santa Cruz Biotechnology, Santa Cruz, Calif.). Blots were developed using a Pierce ECL Plus enhanced chemiluminescence kit according to the directions of the supplier (Thermo-Fisher, Pittsburgh, Pa.).

Usually IC50 stands for the concentration needed to halve the response being measured. By inhibition is commonly meant the share of the control response that was lost under treatment.

The structures appear in SMILES notation. “Also recorded” adds a separate entry of the source. Read-outs that look alike come from different tables or passages of the source.

For `COC(=O)c1ccc(Nc2ccc([N+](=O)[O-])c3nonc23)c(-c2ccc(C)cc2)c1` [Compound 3jc48-3, Methyl 4′-methyl-6-((7-nitrobenzo[c][1,2,5]oxadiazol-4-yl)amino)-[1,1′-biphenyl]-3-carboxylate], in assay [1], the “inhibition of luciferase reporter under c-Myc-responsive vs NF-κB-responsive promoter” value is on record as “selectively inhibits the expression of the luciferase gene under the control of a c-Myc promoter; also recorded: selectively inhibited the c-Myc-driven gene”. Moreover, the “cell cycle arrest, cells in G0/G1” value in the assay on HL60 cells [2] is given as “blocking progression of the cell cycle beyond the G0/G1 phase; also recorded: dose-dependently increased the percentage of HL60 cells in the G0/G1 stage”. The IC50 on Max-Max homodimers is 60.6 µM; in the assay with Daudi cells it was 1280 ± 730 nM; with Daudi cells (Homo sapiens, Daudi), 1300 nM; on c-Myc-Max heterodimers (50% inhibition of c-Myc-Max dimerization and DNA binding in EMSAs) it was 34.8 µM; in the assay with HL60 cells [3] (Homo sapiens, HL-60, MTT assay), 3.8 µM; in the assay on HL60 cells [3] (MTT assay), 3.5 ± 0.54 µM. In addition, in the assay with Daudi cells, the “IC50 Daudi” value was “single-digit micromolar”. In addition, the “c-Myc-Max inhibitory potency relative to 10074-G5” value on c-Myc-Max heterodimers (EMSA) is listed as “approximately five-fold improvement”. On c-Myc-Max heterodimers (EMSA), the “selectivity for Myc-Max heterodimers over Max-Max homodimers” value is given as “about two-fold selective; also recorded: two-fold selectivity”. For the same compound, the inhibition at 100 µM at c-Myc-Max heterodimers (Table 10, 100 μM small-molecule, EMSA, read-out: % Inhibition of c-Myc-Max Dimerization) is 94%. Also, the “IC50 HL60” value in the assay on HL60 cells [3] (MTT assay) is “single-digit micromolar”. On c-Myc-Max dimerization, the “disruption of c-Myc-Max dimerization in cells (co-IP)” value (“disruption of c-Myc-Max dimerization” for short) is “capable of disrupting c-Myc-Max dimerization within cells”.

As for `O=C(OCC(F)(F)F)c1ccc(Nc2ccc([N+](=O)[O-])c3nonc23)cc1` [Compound 3jc91-7, Trifluoroethyl 4-((7-nitrobenzo[c][1,2,5]oxadiazol-4-yl)amino)benzoate], the “disruption of c-Myc-Max dimerization” value on c-Myc-Max dimerization is reported as “inhibit c-Myc-Max dimerization in cells”.

Regarding `O=C(Oc1ccccc1)c1ccc(Nc2ccc([N+](=O)[O-])c3nonc23)cc1` [SF-4-017, Phenyl 4-((7-nitrobenzo[c][1,2,5]oxadiazol-4-yl)amino)benzoate], the IC50 is over 50 µM on Max-Max homodimers; 2500 ± 50 nM with Daudi cells (Homo sapiens, Daudi); 30 µM at c-Myc-Max heterodimers; 9.2 ± 0.78 µM with HL60 cells [3] (Homo sapiens, HL-60, MTT assay). The “IC50 Daudi” value in the assay on Daudi cells was “single-digit micromolar”. In addition, in the assay with HL60 cells [3] (MTT assay), the “IC50 HL60” value is “single-digit micromolar”. For the same compound, the “disruption of c-Myc-Max dimerization” value at c-Myc-Max dimerization was “inhibit c-Myc-Max dimerization in cells”.

(Values after US9242944B2 (UNIVERSITY OF MARYLAND, BALTIMORE, priority 2013, dated 2016).)
